What was measured:
Pannexin 1 (PANX1) [1] = target: T1, Pannexin 1 (PANX1) (Homo sapiens, UniProt Q96RD7); assay: whole-cell patch clamp in apoptotic Jurkat cells; format: cell-based
Target sequence in this assay (Q96RD7 whole entry): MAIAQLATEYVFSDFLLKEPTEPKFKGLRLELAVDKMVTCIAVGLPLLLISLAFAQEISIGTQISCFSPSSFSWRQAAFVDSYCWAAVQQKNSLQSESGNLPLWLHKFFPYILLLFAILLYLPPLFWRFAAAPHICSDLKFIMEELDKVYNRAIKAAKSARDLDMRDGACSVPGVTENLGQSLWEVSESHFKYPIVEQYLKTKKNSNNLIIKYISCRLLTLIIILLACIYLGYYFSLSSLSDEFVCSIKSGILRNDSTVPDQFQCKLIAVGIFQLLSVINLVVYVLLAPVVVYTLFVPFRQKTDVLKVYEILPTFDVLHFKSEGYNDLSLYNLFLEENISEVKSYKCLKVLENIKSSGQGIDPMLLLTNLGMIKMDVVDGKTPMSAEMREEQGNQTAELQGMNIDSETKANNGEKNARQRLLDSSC

Pannexin 1 (PANX1) [2] = target: T1, Pannexin 1 (PANX1); assay: whole-cell patch clamp in HEK293T; format: cell-based
Target sequence in this assay (Q96RD7 1-379 limits assumed): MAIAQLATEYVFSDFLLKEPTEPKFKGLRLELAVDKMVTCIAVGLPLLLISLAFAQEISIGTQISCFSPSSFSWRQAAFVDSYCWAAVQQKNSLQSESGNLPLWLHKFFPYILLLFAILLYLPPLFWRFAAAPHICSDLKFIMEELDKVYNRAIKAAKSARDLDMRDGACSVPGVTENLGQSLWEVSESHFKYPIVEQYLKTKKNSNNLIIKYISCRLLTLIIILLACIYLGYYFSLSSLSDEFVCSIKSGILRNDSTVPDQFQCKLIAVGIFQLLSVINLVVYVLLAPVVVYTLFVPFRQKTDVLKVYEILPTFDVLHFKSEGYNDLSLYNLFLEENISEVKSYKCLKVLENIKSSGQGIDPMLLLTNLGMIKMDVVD

Row | IC50 (Pannexin 1 (PANX1) [2]) [µM] | SMILES | whole-cell patch clamp in apoptotic Jurkat cells (Pannexin 1 (PANX1) [1])
1 | – | CC1(C)[C@@H](OC(=O)CCC(=O)O)CC[C@]2(C)[C@H]3C(=O)C=C4[C@@H]5C[C@@](C)(C(=O)O)CC[C@]5(C)CC[C@@]4(C)[C@]3(C)CC[C@@H]12 [carbenoxolone] | the current sensitive to spironolactone was fully blocked by carbenoxolone (CBX), a drug known to inhibit PANX1
2 | 8.7 ± 1.5 | CC(=O)S[C@@H]1CC2=CC(=O)CC[C@]2(C)[C@H]2CC[C@@]3(C)[C@@H](CC[C@@]34CCC(=O)O4)[C@H]12 [spironolactone] | –

Source: PMC5815904 (Circulation research, 2017)
